Results taken from article PMC10800876, “Evaluation of proline-rich antimicrobial peptides as potential lead structures for novel antimycotics against Cryptococcus neoformans” (Frontiers in Microbiology, 2024).
In brackets after ≈: the same amount, converted by molar mass. Read-outs that look alike come from different tables or passages of the source. Non-standard residues stand in square brackets, D forms with d. Residues, ends and D or L forms follow the SMILES beside them. *: point of attachment. Orn(α-tetramethylguanidino) = CN(C)C(=N[C@@H](CCCN)C(=O)*)N(C)C; Orn = NCCC[C@H](N)C(=O)O

What was measured:
[1] = tested on: C. neoformans H99 (serotype A)
[2] = tested on: C. neoformans 1841 (serotype D)
[3] = tested on: C. neoformans strains 1841, H99, and KN99α; assay: Broth microdilution assay (MIC); type: cell-based, Cryptococcus neoformans
[4] = tested on: C. neoformans KN99α (serotype A, mating type MATα)
[5] = broth microdilution, 50% SAB in phosphate buffer, 30°C, read after 24 h, n = 6
[6] = broth microdilution, 50% SAB in phosphate buffer, 30°C, read after 48 h, n = 6
[7] = broth microdilution, 50% SAB in phosphate buffer pH 7.5, 5 × 10^4 CFU/mL, 30°C, read after 24 h, mean of six replicates (n = 6)
[8] = broth microdilution, 50% SAB in phosphate buffer pH 7.5, 5 × 10^4 CFU/mL, 30°C, read after 48 h, n = 6
[9] = 1841 (serotype D, 24 h, pH 7.5)
[10] = 1841 (serotype D, 48 h, pH 7.5)
[11] = strains 1841, H99, and KN99α, 24 h
[12] = KN99α (serotype A, mating type MATα, 24 h)
[13] = KN99α (serotype A, mating type MATα, 48 h)

| Molecule | MIC (μmol/L) H99 24 h [1, 5] | MIC (μmol/L) H99 48 h [1, 6] | MIC (μmol/L) 1841 24 h [2, 7] | MIC (μmol/L) 1841 48 h [2, 8] | MIC [3] | MIC (μmol/L) KN99α 24 h [4, 5] | MIC (mg/L) KN99α 48 h [4, 6] | MIC (μmol/L) KN99α 48 h [4, 6] | MIC (μmol/L) H99 24 h ([1]; H99 (serotype A, 24 h)) | MIC (μmol/L) H99 48 h ([1]; H99 (serotype A, 48 h)) | MIC (μmol/L) 1841 24 h [2, 9] | MIC (μmol/L) 1841 48 h [2, 10] | MIC [3, 11] | MIC (μmol/L) KN99α 24 h [4, 12] | MIC (μmol/L) KN99α 48 h [4, 13] | MIC (mg/L) H99 24 h ([1]; H99 (serotype A, 24 h)) | MIC (mg/L) KN99α 24 h [4, 12] | MIC (mg/L) KN99α 48 h [4, 13] | MIC (mg/L) 1841 24 h [2, 5] | MIC (mg/L) 1841 48 h [2, 6] |
| --- | --- | --- | --- | --- | --- | --- | --- | --- | --- | --- | --- | --- | --- | --- | --- | --- | --- | --- | --- | --- |
| RRIRPRPPRLPRPRPRPLPFPRPGPRPIPRPLPFPRPGPRPIPRPLPFPRPGPRPIPRP-OH [Bac7 1–60, reference compound] | 1.1 µmol/L | 1.1 µmol/L | 1.1 µmol/L | 1.1 µmol/L | 1.1 µM | 1.1 µmol/L | 8 to 16 mg/L | 1.1 to 2.2 µmol/L | – | – | – | – | – | – | – | – | – | – | – | – |
| CC[C@H](C)[C@H](NC(=O)[C@H](CCCN)NC(=O)[C@@H](NC(=O)[C@@H](N)CCCN)[C@@H](C)CC)C(=O)N[C@@H](CCCN)C(=O)N[C@@H](CCCNC(=N)N)C(=O)N1CCC[C@H]1C(=O)N[C@H](C(=O)N[C@@H](Cc1ccc(O)cc1)C(=O)N[C@@H](CCCN)C(=O)N1CCC[C@H]1C(=O)N[C@@H](CCCNC(=N)N)C(=O)N1CCC[C@H]1C(=O)N[C@@H](CCCNC(=N)N)C(=O)N1CCC[C@H]1C(=O)N1CCC[C@H]1C(=O)N[C@@H](Cc1c[nH]cn1)C(=O)N1CCC[C@H]1C(=O)N[C@@H](CCCNC(=N)N)C(=O)N[C@@H](CCCNC(=N)N)C(=O)O)C(C)C [Api822] (H-[Orn]I[Orn]I[Orn]RPVY[Orn]PRPRPPHPRR-OH) | – | – | – | – | – | – | – | – | 3.2 µmol/L (≈ 7.88 µg/mL) | 3.2 µmol/L (≈ 7.88 µg/mL) | 3.2 µmol/L (≈ 7.88 µg/mL) | 3.2 µmol/L (≈ 7.88 µg/mL) | 1.6 to 6.7 µM | 3.2 µmol/L (≈ 7.88 µg/mL) | 3.2 µmol/L (≈ 7.88 µg/mL) | – | – | – | – | – |
| CC[C@H](C)[C@H](NC(=O)[C@@H](CCCNC(=N)N)NC(=O)[C@H](CCCNC(=N)N)NC(=O)[C@@H]1CCCN1C(=O)[C@@H]1CCCN1C(=O)[C@H](CCCNC(=N)N)NC(=O)[C@@H]1CCCN1C(=O)[C@H](CCCNC(=N)N)NC(=O)[C@@H]1CCCN1C(=O)[C@H](CC(C)C)NC(=O)[C@H](Cc1ccc(O)cc1)NC(=O)[C@@H]1CCCN1C(=O)[C@@H]1CCCN1C(=O)[C@H](CCCCN)NC(=O)[C@H](CC(=O)O)NC(=O)[C@@H](N)C(C)C)C(=O)N[C@@H](Cc1ccc(O)cc1)C(=O)N[C@@H](CC(N)=O)C(=O)N[C@H](CCCNC(=N)N)C(N)=O [Onc112] (H-VDKPPYLPRPRPPR[dR]IYN[dR]-NH2) | – | – | – | – | – | – | – | – | 3.3 to 6.7 µmol/L | 6.7 µmol/L (≈ 16 µg/mL) | 3.3 µmol/L (≈ 7.89 µg/mL) | 6.7 µmol/L (≈ 16 µg/mL) | 1.6 to 6.7 µM | 3.3 to 6.7 µmol/L | 6.7 to 13 µmol/L | 8 to 16 mg/L | 8 to 16 mg/L | 16 to 32 mg/L | – | – |
| CC[C@H](C)[C@H](NC(=O)[C@@H]1CCCN1C(=O)[C@H](CCCNC(=N)N)NC(=O)[C@@H]1CCCN1C(=O)[C@@H]1CCCN1C(=O)[C@@H](NC(=O)[C@@H]1CCCN1C(=O)[C@H](CCCNC(=N)N)NC(=O)[C@@H]1CCCN1C(=O)[C@H](CC(C)C)NC(=O)[C@H](Cc1ccc(O)cc1)NC(=O)[C@H](CO)NC(=O)CNC(=O)[C@H](CCCCN)NC(=O)[C@H](CC(=O)O)NC(=O)[C@@H](N)C(C)C)[C@@H](C)O)C(=O)N[C@@H](Cc1ccc(O)cc1)C(=O)N[C@@H](CC(N)=O)C(=O)N[C@@H](CCCNC(=N)N)C(=O)N[C@@H](CC(N)=O)C(=O)O [Pyrrhocoricin, reference compound] (H-VDKGSYLPRPTPPRPIYNRN-OH) | >55 µmol/L | >55 µmol/L | >55 µmol/L | >55 µmol/L | > 55 µM | >55 µmol/L | – | >55 µmol/L | – | – | – | – | – | – | – | – | – | – | – | – |
| CC[C@H](C)[C@H](NC(=O)[C@H](Cc1ccc(O)cc1)NC(=O)[C@@H](NC(=O)[C@@H]1CCCN1C(=O)[C@H](CCCNC(=N)N)NC(=O)[C@H](CC(N)=O)NC(=O)[C@H](CC(N)=O)NC(=O)[C@H](CCCN)N=C(N(C)C)N(C)C)C(C)C)C(=O)N1CCC[C@H]1C(=O)N[C@@H](CCCNC(=N)N)C(=O)N1CCC[C@H]1C(=O)N[C@@H](CCCNC(=N)N)C(=O)N1CCC[C@H]1C(=O)N1CCC[C@H]1C(=O)N[C@@H](Cc1c[nH]cn1)C(=O)N1CCC[C@H]1C(=O)N[C@@H](CCCNC(=N)N)C(=O)N[C@@H](CC(C)C)C(=O)O [Api137] ({Orn(α-tetramethylguanidino)}-NNRPVYIPRPRPPHPRL-OH; N-terminus and C-terminus assumed) | – | – | – | – | 32 to 64 µg/mL | – | – | – | 14 µmol/L (≈ 32.1 µg/mL) | 28 µmol/L (≈ 64.2 µg/mL) | 14 µmol/L (≈ 32.1 µg/mL) | 28 µmol/L (≈ 64.2 µg/mL) | 14 to 28 µM | 14 to 28 µmol/L | 28 to 56 µmol/L | – | 32 to 64 mg/L | 64 to 128 mg/L | 32 mg/L (≈ 14 µM) | 64 mg/L (≈ 27.9 µM) |
| CC[C@H](C)[C@H](NC(=O)[C@H](Cc1ccc(O)cc1)NC(=O)[C@@H](NC(=O)[C@@H]1CCCN1C(=O)[C@H](CCCNC(=N)N)NC(=O)[C@H](CC(N)=O)NC(=O)[C@H](CC(N)=O)NC(=O)CN)C(C)C)C(=O)N1CCC[C@H]1C(=O)N[C@@H](CCC(N)=O)C(=O)N1CCC[C@H]1C(=O)N[C@@H](CCCNC(=N)N)C(=O)N1CCC[C@H]1C(=O)N1CCC[C@H]1C(=O)N[C@@H](Cc1c[nH]cn1)C(=O)N1CCC[C@H]1C(=O)N[C@@H](CCCNC(=N)N)C(=O)N[C@@H](CC(C)C)C(=O)O [Apidaecin 1b, reference compound] (H-GNNRPVYIPQPRPPHPRL-OH) | – | – | – | – | – | – | – | – | > 61 µmol/L | > 61 µmol/L | > 61 µmol/L | > 61 µmol/L | > 61 µM | > 61 µmol/L | > 61 µmol/L | – | – | – | – | – |
